These are literature values, as cited in patent publication US20220275055A1, “DRUG TARGET OF IDIOPATHIC PULMONARY FIBROSIS” (National Institute of Biological Sciences, Beijing, priority 2019, published 2022).

For the series the following is noted: idiopathic pulmonary fibrosis (IPF); background statement.

For `Cc1ccc(=O)n(-c2ccccc2)c1` [pirfenidone], the survival time entry is listed as “failed to show significantly increased survival time”.

On to `COC(=O)c1ccc2c(c1)NC(=O)/C2=C(\Nc1ccc(N(C)C(=O)CN2CCN(C)CC2)cc1)c1ccccc1` [nintedanib], for which the survival time entry is given as “failed to show significantly increased survival time”.
